How the values were obtained:
Assay in all cases: relative viability (nuclei count vs DMSO), 5 days (fraction); higher = more cells survive
[1] = compound: Nc1ccccc1NC(=O)c1ccc(CNC(=O)OCc2cccnc2)cc1 [Entinostat] + CC(C)C[C@H](NC(=O)[C@H](Cc1ccccc1)NC(=O)c1cnccn1)B(O)O [Bortezomib] (partner 0.002 µM)
In short: (§1)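 One day after seeding in 1536-well plates, lung cancer cell lines were dosed by pin tool. Dosing was either single-drug or a fixed anchor-drug dose plus five library-drug doses (not always all listed) in √10 steps. After 5 days, nuclei were stained in one fix-and-stain step and counted on 4× images, and relative viability is the nuclei count of treated wells over that of vehicle wells, given as the median of duplicate plates.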

[2] = compound: CN1CCC(CNc2ccc3ncc(-c4cccc(OC(F)(F)F)c4)n3n2)CC1 [SGI-1776] + C[C@]1(O)C[C@@H](c2nc(-c3ccc4ccc(-c5ccccc5)nc4c3)c3c(N)nccn32)C1 [Linsitinib] (partner 1 µM)
In short: as §1

[3] = compound: Nc1ccccc1NC(=O)c1ccc(CNC(=O)OCc2cccnc2)cc1 [Entinostat] + CC(=O)Nc1cccc(-n2c(=O)n(C3CC3)c(=O)c3c(Nc4ccc(I)cc4F)n(C)c(=O)c(C)c32)c1 [Trametinib] (partner 0.02 µM)
In short: as §1

[4] = compound: Nc1ccccc1NC(=O)c1ccc(CNC(=O)OCc2cccnc2)cc1 [Entinostat] + CS(=O)(=O)CCNCc1ccc(-c2ccc3ncnc(Nc4ccc(OCc5cccc(F)c5)c(Cl)c4)c3c2)o1 [Lapatinib] (partner 2 µM)
In short: as §1

Work on UMC-11 yielded a relative viability ([1]; first compound 0.02 µM) of 0.557, a relative viability ([1]; first compound 0.06325 µM) of 0.708 and a relative viability ([1]; first compound 0.2 µM) of 0.827. The relative viability ([1]; first compound 0.6325 µM) was 0.217, the relative viability ([1]; first compound 2 µM) was 0.111 and the relative viability ([2]; first compound 0.08 µM) was 1.06. For the same cell line, the relative viability ([2]; first compound 0.8 µM) was 0.987, the relative viability ([2]; first compound 2.53 µM) was 0.971 and the relative viability ([2]; first compound 8 µM) was 0.836. The relative viability ([3]; first compound 0.02 µM) was 0.736, the relative viability ([3]; first compound 0.06325 µM) was 0.895 and the relative viability ([3]; first compound 0.2 µM) was 0.554. The relative viability ([3]; first compound 0.6325 µM) was 0.163, the relative viability ([3]; first compound 2 µM) was 0.142 and the relative viability ([4]; first compound 0.02 µM) was 1.17. It also gave a relative viability ([4]; first compound 0.06325 µM) of 1.21, a relative viability ([4]; first compound 0.2 µM) of 1.28 and a relative viability ([4]; first compound 0.6325 µM) of 0.222. The relative viability ([4]; first compound 2 µM) was 0.173.

Reference: the supplement of paper PMC10307832
